Reference: publication PMC7048932, “Examining sterically demanding lysine analogs for histone lysine methyltransferase catalysis” (Scientific Reports, 2020)

Tests used:
SETD7 [1] = experiment: Inhibition study of SETD7 (MALDI-TOF MS); assay type: biochemical, human; details: peptide 100 µM, SETD7 100 nM, SAM 20 µM, 21-mer H3 peptide 5 µM, 30 min, 37 °C
Description: A mixture of histone peptide (0–100 µM final conc.) and SETD7, G9a or GLP (100 nM final conc.) was preincubated for 5 minutes at 37 °C in 18 µL of 50 mM glycine pH 8.8 containing 2.5% glycerol as assay buffer. Then 2 µL of a pre-mixture of SAM (20 µM final conc.) and 21-mer H3 histone peptide (residues 1–21, 5 µM final conc.) was added to afford a final assay mixture (20 µL) and the enzymatic reaction was incubated for an additional 30 minutes at 37 °C before quenching with 20 μL of MeOH. The quenched reaction (1 μL) was mixed with a solution of saturated α-cyano-4-hydroxycinnamic acid (5 μL) and spotted on the MALDI plate for crystallisation. The enzymatic activity was determined by taking the peak areas of each methylation state (including all isotopes and adducts) and is expressed relative to a control reaction in the absence of unnatural histone peptides. Each inhibition experiment was carried out in replicate.

SETD7 [2] = experiment: MALDI-TOF MS methylation assay of H3K4 peptides with SETD7; assay type: biochemical, human; details: peptide 100 µM, SETD7 2 µM, SAM 200 µM, 1 h, 37 °C
Description: (§1) MALDI-MS methyltransferases activity experiments were performed using a Bruker instrument in the reflectron positive mode. For regular methyltransferase standard conditions experiment which carried out in 30 µL total volume, the mixture contains peptide (100 µM), SAM (200 µM), SETD8 or SETD7 (2 µM), in assay buffer 50 mM Tris at optimal pH 8.0. In case of G9a and GLP, similar conditions were used, except (500 µM) of SAM was added to the reaction mixture. Samples were incubated in an Eppendorf vial 1.5 mL using thermomixer for 1 h at 37 °C. A 5 µL aliquot of the solution was mixed with 5 µL of MeOH, after which 5 µL of this mixture was mixed with 5 µL of α-cyano-4-hydroxycinamic acid matrix (CHCA, 5 mg/mL in 125:125 µL acetonitrile/water). The spots were placed on a stainless steel MALDI plate (MS 96 target ground steel BC of Bruker, Germany). The mass corresponding to one monomethylation observed as +14 Da, dimethylation observed as +28 Da and trimethylation observed as +42 Da. The enzymatic activity was determined by taking the peak areas of each methylation state, including all isotopes and adducts, and was annotated using FlexAnalysis software (Bruker Daltonics, Germany). […] Methylated peptide substrates were repeated five times and the unmethylated substrates were triplicated. Sequences of the examined peptides are given in (Supplementary Table 1).

SETD7 [3] = experiment: as above; assay type: biochemical, human; details: peptide 100 µM, SETD7 10 µM, SAM 1 mM, 1 h and 3 h, 37 °C
SETD8 [4] = biological target: T1, SETD8 (Homo sapiens, UniProt Q9NQR1); experiment: Enzyme kinetics of SETD8-catalyzed methylation (MALDI-TOF MS); assay type: biochemical; details: MALDI-TOF MS assay
T1 construct: His6 (N); made in house; host or cells: E. coli BL21 (DE3)pLysS-rosetta
T1 sequence (Q9NQR1 1-393): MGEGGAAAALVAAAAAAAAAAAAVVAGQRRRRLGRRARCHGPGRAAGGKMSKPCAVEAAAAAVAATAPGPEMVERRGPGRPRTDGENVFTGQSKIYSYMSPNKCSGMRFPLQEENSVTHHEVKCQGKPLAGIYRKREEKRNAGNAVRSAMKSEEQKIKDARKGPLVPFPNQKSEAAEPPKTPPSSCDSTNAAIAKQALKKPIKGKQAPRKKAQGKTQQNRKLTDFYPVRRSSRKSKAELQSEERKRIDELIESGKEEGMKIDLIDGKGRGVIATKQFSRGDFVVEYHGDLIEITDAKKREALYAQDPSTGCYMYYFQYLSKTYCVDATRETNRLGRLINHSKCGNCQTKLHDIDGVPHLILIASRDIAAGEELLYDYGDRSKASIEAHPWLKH
Description: To establish the substrate efficiency of lysine- and KCP-containing histone peptides, we carried out enzyme kinetics analysis, employing the MALDI-TOF MS assays. Both enzymes preferentially catalyze methylation of natural histone sequences, however, bulkier KCP-containing peptides still underwent favorable kinetics profiles (Table 1 and Supplementary Fig. 30).
as §1

SETD8 [5] = biological target: T1, SETD8; experiment: MALDI-TOF MS methylation assay of H4K20 peptides with SETD8; assay type: biochemical; details: peptide 100 µM, 37 °C; for SETD8-catalyzed methylation, result in words, increased SETD8/SAM and prolonged incubation: SETD8 10 µM, SAM 1 mM, 1 h and 5 h, MALDI-MS
Description: as §1, with “For regular methyltransferase standard conditions experiment which carried out in 30 µL total volume, the mixture contains peptide (100 µM), SAM (200 µM), SETD8 or SETD7 (2 µM), in assay buffer 50 mM Tris at optimal pH 8.0.” left out

SETD8 [6] = biological target: T1, SETD8; experiment: Competition study between H4K20 and analog peptides with SETD8 (MALDI-MS); assay type: biochemical; details: SETD8, equimolar H4K20 (100 µM) and H4KCP20 (100 µM), SAM 200 µM, 1 h, 37 °C
From the text: Next, we carried out competition studies between histone peptides that bear lysine and its analogs. In the presence of SETD8, SAM and equimolar amounts of H4K20 and H4KCP20, we observed the formation of both monomethylated products, albeit a comparatively larger degree of monomethylation of H4K20 was found (70% of H4K20me, 40% of H4KCP20me). […] It is also possible that subtle differences in sterics and electronics of H4KCP20 when compared to H4K20 do contribute to observed differences in the degree of methylation in the competition experiment.
Figure S31. MALDI-MS based assay showing ( a) SETD8-catalyzed monomethylation of […]
(b) SETD8-catalyzed methylation of H4K20 (100 µM) in the presence of H4F 3a20 (100 µM) and SAM (200 µM) after 1 h at 37 °C; ( c) SETD8-catalyzed methylation of H4K20 (100 µM) in the presence of H4F 4a20 (100 µM) and SAM (200 µM) after 1 h at 37 °C; ( d) SETD8-catalyzed methylation of H4K20 (100 µM) in the presence of H4A p20 (100 µM) and SAM (200 µM) after 1 h at 37 °C; ( e) SETD8-catalyzed methylation of H4K20 (100 µM) in the presence of […]
(1 picture or pasted object on this page, not shown here)

[7] = SETD8 2 µM, SAM 200 µM, 50 mM Tris pH 8.0, 1 h, MALDI-TOF MS

For “ART(F4a4)QTARKSTGGKA [H3F4a4, H3K4 peptide bearing para-aminophenylalanine at position 4]”, the “inhibition of SETD7 at 100 µM peptide” value (SETD7 [1]) was 11% and the “SETD7-catalyzed methylation, result in words” value (SETD7 [2]) was “lack of methylation”.
With “ART(Kcp4)QTARKSTGGKA [H3KCP4, H3K4 peptide bearing cyclopropyllysine at position 4]” the “SETD7-catalyzed methylation, result in words, high SETD7/SAM” value (SETD7 [3]) was “increased amount of the monomethylated H3KCP4me product”, the “SETD7-catalyzed methylation, result in words, high SETD7/SAM” value (SETD7 [3]; listed as H3K CP4) was “monomethylation” and the “SETD7-catalyzed methylation, result in words” value (SETD7 [2]) was “only traces”. The “SETD7-catalyzed methylation, result in words” value (SETD7 [2]; listed as H3K CP4) was “traces of monomethylation”.
Work on “GGAKRHR(Kcp20)VLRDNIQ [H4KCP20, H4K20 peptide bearing cyclopropyllysine at position 20]” yielded a Km (SETD8 [4]) of 172 ± 37 µM, a kcat (SETD8 [4]) of 0.0113 ± 0.0013 s⁻¹ and a kcat/KM (SETD8 [4]) of 66 M⁻¹ s⁻¹. For the same substance, the “SETD8-catalyzed methylation, result in words” value (SETD8 [5]; [7]) was “methylation”, the “monomethylated product formed (H4KCP20me)” value (SETD8 [5]; [7]) was 60% and the “SETD8-catalyzed methylation, result in words, increased SETD8/SAM and prolonged incubation” value (SETD8 [5]) was “almost complete formation of the monomethylated H4KCP20me product”. The “SETD8-catalyzed methylation, result in words, increased SETD8/SAM and prolonged incubation” value (SETD8 [5]; listed as H4K CP20) was “predominant monomethylation” and the “monomethylated product formed in competition experiment” value (SETD8 [6]) was 40%.
In the case of “GGAKRHRK^20VLRDNIQ [H4K20, reference compound]”, the “SETD8-catalyzed methylation, result in words” value (SETD8 [5]; [7]) is reported as “quantitative monomethylation” and the “monomethylated product formed in competition experiment” value (SETD8 [6]) is reported as 70%.
